This assay deals with MCF-7 cell-derived mammospheres. Put plainly: Mammosphere formation, MCF-7-derived. The format is cell-based, human. To be noted: volatile materials exposed to MCF-7 (FIG. 5B). Here is the method: FIGS. 4A, 4B and 4C show effects of PAA on formation of MCF-7 cell-derived mammospheres. Primary mammospheres were cultured together with PAA (0.2 and 0.5 mM) or DMSO;
Human breast cancer cells, i.e., MCF-7 and MDA-MB-231, were commercially obtained from American Type Culture Collection (ATCC; Manassas, Va., USA). MCF-7 and MDA-MB-231 cells were cultured in Dulbecco's modified essential medium (DMEM; Hyclone, Logan, Utah, USA) containing 10% fetal bovine serum (FBS; Hyclone), 100 U/mL of penicillin, and 100 μg/mL of streptomycin (Hyclone). The MCF-7 and MDA-MB-231 cells were maintained at 37° C. in a 5% CO2-containing humidified incubator. The cells were plated at a density of 1×10^6 on a 10 cm petri dish. In order to establish primary mammospheres, single cell-suspended MCF-7 and MDA-MB-231 cells were seeded at a density (cells/well) of 3.5×10^4 to 4×10^4 and 0.5×10^4 to 1×10^4, respectively, on ultra-low attachment 6-well plates containing 2 ml complete MammoCult™ medium (StemCell Technologies, Vancouver, BC, Canada). The complete MammoCult™ medium was supplemented with 4 μg/mL of heparin, 0.48 μg/mL of hydrocortisone, 100 U/mL of penicillin and 100 μg/mL of streptomycin. The cells were cultured for 7 days in a 37° C. 5% CO2 incubator.
At 7 days of culture, the cell culture plate was disposed on a scanner (Epson Perfection V700 PHOTO, Epson Korea, Co, Seoul, Korea) to obtain an 8 bit gray scale image of mammospheres. The image was obtained at a low resolution (300 dpi) using an NICE software program and downloaded from ftp://ftp.nist.gov/pub/physics/mLclarke/NICE. For counting, preferred numbers of rows and columns (for example, 2×3 of 6-well plate) were selected to form regions of interest (ROIs), and an oval setting of the NICE program was selected and then respective ROIs were defined by moving the shapes of provided ROIs and controlling the sizes thereof. The background signal of the image was negated using a critical algorithm and the selected image was automatically counted. Regarding the mammosphere formation analysis, formation efficiency of mammospheres (MFE, %) was determined in accordance with the number of mammospheres per well/the total number of cells plated per well×100.

Structures are written as SMILES.

As to `O=CCCc1ccccc1` [3-phenylpropionaldehyde], the “formation of primary mammospheres derived from MCF-7 cells” value was “inhibited”. Next, `CC(C=O)c1ccccc1` (centres unmarked) [2-phenylpropionaldehyde]: “potently inhibited”.

The values above are taken from patent publication US11324706B2, “Composition for inhibiting growth of breast cancer stem cells containing phenylacetaldehyde” (JEJU NATIONAL UNIVERSITY INDUSTRY-ACADEMIC COOPERATION …, priority 2016, dated 2022).
